From patent publication US20240366612A1, “COMPOUNDS AND METHODS FOR MODULATING NUCLEIC ACID SPLICING” (REMIX THERAPEUTICS INC., priority 2021, published 2024)
Counter-ions that a name gives are not always drawn.

Assays:
in vitro = conditions: human
Protocol: Compounds described herein were screened for toxicity in K562 (human chronic myelogenous leukemia) cells using a Cell Titer Glo 2.0 assay.
• Promega CellTiter-Gbo® 2.0 Cell Viability Assay (cat #G9241) • Corning 384-well TC-treated microplates (cat #3570)
Cells were plated at 500 cells/well (K562 cells) in 45 μL of IMDM supplemented with 10% FBS in a 384-well opaque plate. Wells containing only medium were used as a blank control. Test compounds (e.g., compounds of Formula (I), (II), and (III)) were first serially diluted in DMSO then diluted 1:100 with IMDM+10% FBS. The final concentration of DMSO was 0.1% in each well. The cells were incubated for 72 hours at 37° C. and 5% CO2 before assaying with Cell Titer Glo 2.0 reagent.

[1] = test system: HiBiT-tagged MYB protein in K562 cells; assay: HiBiT protein abundance assay, MYB; format: cell-based, human; conditions: HiBiT-modified K562 cells, 24 hours, luminescence
Summary of the method: (§1)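 K562 lines with the endogenous target HiBiT-tagged, seeded in IMDM+1% FBS, got a 10-point 3-fold dilution series (top final 10 μM, DMSO ≤0.25%) for 24 hours at 37° C. Lytic LgBiT luminescence was normalized against unmodified-K562 and DMSO-only controls, and IC50 was interpolated at 50% from a four-parameter logistic fit.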

[2] = test system: HiBiT-tagged HTT protein in K562 cells; assay: HiBiT protein abundance assay, HTT; format: cell-based, human; conditions: HiBiT-modified K562 cells, 24 hours, luminescence
Summary of the method: as §1

[3] = test system: HiBiT-tagged Target C protein in K562 cells; assay: HiBiT protein abundance assay, Target C; format: cell-based, human; conditions: HiBiT-modified K562 cells, 24 hours, luminescence
Summary of the method: as §1

SMILES | GI50 at 72 h (in vitro) | IC50 [1] | IC50 [2] | IC50 [3]
Cc1cn2nc(-c3cc(=O)n4cc(N(C)C5CC(C)(C)NC(C)(C)C5)sc4n3)cc(C)c2n1 [Compound 205, 7-(2,8-dimethylimidazo[1,2-b]pyridazin-6-yl)-2-(methyl(2,2,6,6-tetramethylpiperidin-4-yl)amino)-5H-thiazolo[3,2-a]pyrimidin-5-one] | 1 to 10 µM | 1 to 10 µM | 1 to 10 µM | 1 to 10 µM
Cc1cn2cc(-c3nn4c(=O)cc(N(C)C5CC(C)(C)NC(C)(C)C5)nc4s3)cc(F)c2n1 [Compound 215, 2-(8-fluoro-2-methylimidazo[1,2-a]pyridin-6-yl)-7-(methyl(2,2,6,6-tetramethylpiperidin-4-yl)amino)-5H-[1,3,4]thiadiazolo[3,2-a]pyrimidin-5-one] | 1 to 10 µM | 1 to 10 µM | > 10 µM | > 10 µM
Cc1cn2cc(-n3cnc4nc(N(C)C5CC(C)(C)NC(C)(C)C5)sc4c3=O)cc(F)c2n1 [Compound 227, 6-(8-fluoro-2-methylimidazo[1,2-a]pyridin-6-yl)-2-(methyl(2,2,6,6-tetramethylpiperidin-4-yl)amino)thiazolo[4,5-d]pyrimidin-7(6H)-one, formate] | > 10 µM | > 10 µM | > 10 µM | > 10 µM
